Experimental findings from patent US9751885B2, “Cyclopropanamine compound and use thereof” (Takeda Pharmaceutical Company Limited, priority 2012, dated 2017) are described below.

The IC50 is the midpoint of a concentration-inhibition curve.

Structures can show the parent of a compound that is named as a salt.

One assay deals with human LSD1(172-833) (Homo sapiens (Human), UniProt O60341). Nature of the assay: Measurement of LSD1 inhibitory activity (time-resolved fluorescence, biotin-histone H3 mono methylated K4 peptide). The class given is biochemical. How it is done:
When the turbidity reached 500 Klett units, the culture temperature was changed to 16° C., IPTG (Isopropyl β-D-1-thiogalactopyranoside) having a final concentration of 0.5 mM was added to induce expression, and the cells were cultured further for 14 hr. The culture medium was centrifuged at 6,000 g for 15 min, and Escherichia coil pellets were recovered.
Using Branson ultrasonic disintegrator, the suspension was disrupted by ultrasonication for 3 min, and centrifuged at 33,000 g for 60 min, and the supernatant was recovered. […] It was concentrated to 10 mL with AmiconUltra (NWCO 30K) (Millipore Japan), and purified with HiLoad 26/60 Superdex 200 pg column (GE Healthcare) equilibrated with Buffer A to give hLSD1 purified product (8.4 mg). The protein concentration of hLSD1 was measured by BCA Protein Assay Kit (Thermo Fisher Scientific K.K.) using bovine serum albumin as the standard.
(5) Measurement of LSD1 Inhibitory Activity
After reaction at room temperature for 5 min, 1 mM 2-PCPA solution was added 5 μL to terminate the reaction. A detection solution ([…] potassium fluoride, 0.1% BSA) containing europium-labeled anti-histone H3 antibody (Wako Pure Chemical Industries, Ltd.) and Streptavidin-XL665 (Cisbio) was further added by 5 μL, and the mixture was left standing for 60 min.

The next assay concerns the target MAO-A enzyme (Homo sapiens (Human), UniProt P21397). Nature of the assay: Measurement of MAO-A inhibitory activity (MAO-Glo Assay). In kind it is biochemical.
Another assay deals with MAO-B enzyme (Homo sapiens (Human), UniProt P27338). Briefly: Measurement of MAO-B inhibitory activity (MAO-Glo Assay).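 Further: luminescence read-out, compound preincubated 10 min with enzyme then reacted 60 min at room temperature, inhibition relative to enzyme reaction without compound, blank lacking enzyme and compound.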 As to conditions: read-out: MAO-B IC50 value.
Sequence of MAO-B enzyme (P27338 whole entry): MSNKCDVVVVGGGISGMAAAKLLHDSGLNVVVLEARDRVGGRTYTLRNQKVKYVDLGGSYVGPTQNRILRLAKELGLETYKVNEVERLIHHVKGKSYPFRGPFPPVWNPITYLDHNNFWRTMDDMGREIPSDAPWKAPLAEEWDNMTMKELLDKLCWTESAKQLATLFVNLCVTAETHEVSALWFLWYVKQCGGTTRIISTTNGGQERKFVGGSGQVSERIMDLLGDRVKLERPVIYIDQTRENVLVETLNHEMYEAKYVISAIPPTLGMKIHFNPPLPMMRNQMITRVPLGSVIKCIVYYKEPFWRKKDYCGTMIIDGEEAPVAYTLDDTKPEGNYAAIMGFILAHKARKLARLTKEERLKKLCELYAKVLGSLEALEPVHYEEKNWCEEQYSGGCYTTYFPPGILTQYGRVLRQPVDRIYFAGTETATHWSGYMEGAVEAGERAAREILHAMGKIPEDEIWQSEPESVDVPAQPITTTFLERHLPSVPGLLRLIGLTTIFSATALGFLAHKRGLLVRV

Sequence of MAO-A enzyme (P21397 whole entry): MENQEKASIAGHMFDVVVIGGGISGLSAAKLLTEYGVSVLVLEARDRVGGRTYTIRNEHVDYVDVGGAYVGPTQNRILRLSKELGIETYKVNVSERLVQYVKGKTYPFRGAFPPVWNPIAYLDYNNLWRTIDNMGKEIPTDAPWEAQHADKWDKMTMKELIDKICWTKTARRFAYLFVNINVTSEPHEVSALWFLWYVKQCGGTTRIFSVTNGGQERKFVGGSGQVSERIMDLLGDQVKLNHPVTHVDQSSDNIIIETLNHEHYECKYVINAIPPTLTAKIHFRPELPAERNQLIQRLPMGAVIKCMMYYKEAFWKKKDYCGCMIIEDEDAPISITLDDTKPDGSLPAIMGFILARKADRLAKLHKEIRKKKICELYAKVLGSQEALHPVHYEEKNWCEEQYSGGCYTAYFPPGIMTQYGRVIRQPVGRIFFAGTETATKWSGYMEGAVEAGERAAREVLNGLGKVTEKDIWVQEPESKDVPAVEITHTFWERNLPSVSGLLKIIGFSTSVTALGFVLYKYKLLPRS

Regarding `N[C@@H]1C[C@H]1c1ccc(C(=O)N2CCCCC2)cc1` (relative stereo) [Example 7, (4-(trans-2-aminocyclopropyl)phenyl)(piperidin-1-yl)methanone hydrochloride], the IC50 on human LSD1(172-833) is below 0.1 µM; against MAO-A enzyme it was 0.8 µM; on MAO-B enzyme, above 10 µM.
In the same order, the values of `O=C(Nc1ccccc1)c1ccc([C@@H]2C[C@H]2NCC2CC2)cc1` (relative stereo) [Example 8, 4-(trans-2-((cyclopropylmethyl)amino)cyclopropyl)-N-phenylbenzamide hydrochloride] are below 0.1 µM, 8.3 µM and 4.6 µM.
In the same order, the values of `CN(Cc1ccccc1)C(=O)c1ccc([C@@H]2C[C@H]2N)cc1` (relative stereo) [Example 9, 4-(trans-2-aminocyclopropyl)-N-benzyl-N-methylbenzamide hydrochloride] are below 0.1 µM, 0.12 µM and above 10 µM.
As for `CN(Cc1ccccc1)C(=O)c1ccc([C@@H]2C[C@H]2NCC2CC2)cc1` (relative stereo) [Example 10, N-benzyl-4-(trans-2-((cyclopropylmethyl)amino)cyclopropyl)-N-methylbenzamide hydrochloride], the IC50 was below 0.1 µM against human LSD1(172-833), 7 µM at MAO-A enzyme and above 10 µM at MAO-B enzyme.
In the same order, the values of `O=C(Nc1ccccc1)c1cccc([C@@H]2C[C@H]2NCC2CC2)c1` (relative stereo) [Example 13, 3-(trans-2-((cyclopropylmethyl)amino)cyclopropyl)-N-phenylbenzamide hydrochloride] are below 0.1 µM, above 10 µM and above 10 µM.
Take `O=C(NCc1ccccc1)c1cccc([C@@H]2C[C@H]2NCC2CC2)c1` (relative stereo) [Example 14, N-benzyl-3-(trans-2-((cyclopropylmethyl)amino)cyclopropyl)benzamide hydrochloride]: the half-inhibitory concentration (IC50) against human LSD1(172-833) is below 0.1 µM; at MAO-A enzyme, 8.1 µM; on MAO-B enzyme, above 10 µM.
In the same order, the values of `Cc1cnc(CNC(=O)c2ccc([C@@H]3C[C@H]3NCC3CC3)cc2)cn1` (relative stereo) [Example 15, 4-(trans-2-((cyclopropylmethyl)amino)cyclopropyl)-N-((5-methylpyrazin-2-yl)methyl)benzamide bis(trifluoroacetate)] are below 0.1 µM, above 10 µM and above 10 µM.
In the case of `O=C(NCc1ccccn1)c1ccc([C@@H]2C[C@H]2NCC2CC2)cc1` (relative stereo) [Example 16, 4-(trans-2-((cyclopropylmethyl)amino)cyclopropyl)-N-(pyridin-2-ylmethyl)benzamide bis(trifluoroacetate)], the IC50 at human LSD1(172-833) was below 0.1 µM; on MAO-A enzyme, above 10 µM; on MAO-B enzyme, above 10 µM.
For `O=C(NCc1ccncc1)c1ccc([C@@H]2C[C@H]2NCC2CC2)cc1` (relative stereo) [Example 17, 4-(trans-2-((cyclopropylmethyl)amino)cyclopropyl)-N-(pyridin-4-ylmethyl)benzamide bis(trifluoroacetate)], the results for the IC50 at human LSD1(172-833), against MAO-A enzyme and at MAO-B enzyme were below 0.1 µM, above 10 µM and above 10 µM, respectively.
With `O=C(NCc1cccnc1)c1ccc([C@@H]2C[C@H]2NCC2CC2)cc1` (relative stereo) [Example 18, 4-(trans-2-((cyclopropylmethyl)amino)cyclopropyl)-N-(pyridin-3-ylmethyl)benzamide bis(trifluoroacetate)], the concentration for half-maximal inhibition (IC50) at human LSD1(172-833) is below 0.1 µM; against MAO-A enzyme, above 10 µM; on MAO-B enzyme it was above 10 µM.
In the case of `O=C(NCCc1ccccn1)c1ccc([C@@H]2C[C@H]2NCC2CC2)cc1` (relative stereo) [Example 19, 4-(trans-2-((cyclopropylmethyl)amino)cyclopropyl)-N-(2-(pyridin-2-yl)ethyl)benzamide bis(trifluoroacetate)], the IC50 was below 0.1 µM at human LSD1(172-833), above 10 µM against MAO-A enzyme and above 10 µM at MAO-B enzyme.
As for `O=C(c1ccc([C@@H]2C[C@H]2NCC2CC2)cc1)N1Cc2cccnc2C1` (relative stereo) [Example 20, (4-(trans-2-((cyclopropylmethyl)amino)cyclopropyl)phenyl)(5,7-dihydro-6H-pyrrolo[3,4-b]pyridin-6-yl)methanone bis(trifluoroacetate)], the IC50 on human LSD1(172-833) is below 0.1 µM; against MAO-A enzyme, above 10 µM; at MAO-B enzyme, above 10 µM.
With `O=C(NCc1cccc(Oc2ccccc2)c1)c1ccc([C@@H]2C[C@H]2NCC2CC2)cc1` (relative stereo) [Example 21, 4-(trans-2-((cyclopropylmethyl)amino)cyclopropyl)-N-(3-phenoxybenzyl)benzamide trifluoroacetate], the IC50 was below 0.1 µM against human LSD1(172-833), 1.8 µM at MAO-A enzyme and above 10 µM on MAO-B enzyme.
In the same order, the values of `N#CCN(Cc1ccccc1)C(=O)c1ccc([C@@H]2C[C@H]2NCC2CC2)cc1` (relative stereo) [Example 22, N-benzyl-N-(cyanomethyl)-4-(trans-2-((cyclopropylmethyl)amino)cyclopropyl)benzamide trifluoroacetate] are below 0.1 µM, above 10 µM and above 10 µM.
In the same order, the values of `CN1CCN(c2ccc(NC(=O)c3ccc([C@@H]4C[C@H]4NCC4CC4)cc3)cc2)CC1` (relative stereo) [Example 23, 4-(trans-2-((cyclopropylmethyl)amino)cyclopropyl)-N-(4-(4-methylpiperazin-1-yl)phenyl)benzamide tris(trifluoroacetate)] are below 0.1 µM, above 10 µM and above 10 µM.
The like results for `N#Cc1cccc(CNC(=O)c2ccc([C@@H]3C[C@H]3NCC3CC3)cc2)c1` (relative stereo) [Example 25, N-(3-cyanobenzyl)-4-(trans-2-((cyclopropylmethyl)amino)cyclopropyl)benzamide trifluoroacetate] were, in that order, below 0.1 µM, above 10 µM and above 10 µM.
As to `O=C(NCc1ncccc1C(F)(F)F)c1ccc([C@@H]2C[C@H]2NCC2CC2)cc1` (relative stereo) [Example 26, 4-(trans-2-((cyclopropylmethyl)amino)cyclopropyl)-N-((3-(trifluoromethyl)pyridin-2-yl)methyl)benzamide bis(trifluoroacetate)], the concentration for half-maximal inhibition (IC50) at human LSD1(172-833) is below 0.1 µM; against MAO-A enzyme, above 10 µM; at MAO-B enzyme it was above 10 µM.
As for `O=C(NCc1ccc(N2CCCC2=O)cc1)c1ccc([C@@H]2C[C@H]2NCC2CC2)cc1` (relative stereo) [Example 27, 4-(trans-2-((cyclopropylmethyl)amino)cyclopropyl)-N-(4-(2-oxopyrrolidin-1-yl)benzyl)benzamide trifluoroacetate], the IC50 against human LSD1(172-833) was below 0.1 µM; against MAO-A enzyme, above 10 µM; on MAO-B enzyme, above 10 µM.
Consider `O=C(NCc1ccc(N2CCOCC2)cc1)c1ccc([C@@H]2C[C@H]2NCC2CC2)cc1` (relative stereo) [Example 28, 4-(trans-2-((cyclopropylmethyl)amino)cyclopropyl)-N-(4-(morpholin-4-yl)benzyl)benzamide bis(trifluoroacetate)], for which the figures for the IC50 at human LSD1(172-833), at MAO-A enzyme and at MAO-B enzyme were below 0.1 µM, above 10 µM and above 10 µM, respectively.
